The values that follow are results of earlier work, collected in the PKSmart pharmacokinetics tables (Seal et al. 2025).

The nature of the data set: Lombardo, Berellini, Obach 2018, Drug Metab Dispos 46:1466, doi 10.1124/dmd.118.082966. The settings on record: human; for MRT / Vd / half-life / clearance: in vivo, iv; for fraction unbound: plasma.

Structures are written as SMILES.

In general, MRT refers to a mean duration of stay, worked out from the concentration-time curve. As a reminder, the Vd is a proportionality between amount in the body and measured concentration, not a real space. A word on the half-life: it is the time needed for the level to fall by half in the phase considered. On to `Cc1nc2c([nH]1)-c1ccccc1N(C(=O)c1ccc(NC(=O)c3ccccc3-c3ccccc3)cc1)CC2`, for which the MRT is 4.2 h, the Vd was 0.76 L/kg and the half-life is 6.7 h.

The term clearance denotes a measure of how efficiently the substance is removed, as volume per time. By fraction unbound is commonly meant free concentration divided by total concentration. `Cc1nccn1CCC(C(N)=O)(c1ccccc1)c1ccccc1`: the MRT was 4.1 h, the volume of distribution (Vd) is 1.51 L/kg, the clearance was 6.1 mL/min/kg and the half-life is 3.2 h. In addition, the unbound share (fraction unbound) was 0.12.

Consider `CCOC(=O)c1ccc(C#Cc2ccc3c(c2)C(C)(C)CCS3)nc1`, for which the MRT is 1.56 h, the Vd was 3.55 L/kg, the clearance is 37.2 mL/min/kg and the half-life was 6.22 h.

Take `O=C(O)CCCc1ccc(N(CCCl)CCCl)cc1`: the mean residence time (MRT) is 1.5 h, the Vd is 0.26 L/kg, the clearance was 2.8 mL/min/kg and the half-life is 1.1 h.

`CCCc1cc(=O)[nH]c(=S)[nH]1`: the MRT was 1.8 h, the distribution volume (Vd) was 0.34 L/kg, the clearance was 3.1 mL/min/kg and the half-life was 1.3 h. In addition, the fraction unbound is 0.18.

`C[C@@H](N/C(=N\c1ccncc1)NC#N)C(C)(C)C`: the MRT was 3.2 h, the Vd was 1.1 L/kg, the clearance was 5.68 mL/min/kg and the half-life is 2.5 h. Moreover, the free fraction (fraction unbound) is 0.6.

As to `O=C(CCCN1CC=C(n2c(=O)[nH]c3ccccc32)CC1)c1ccc(F)cc1`, the MRT is 2.73 h, the volume of distribution (Vd) was 1.41 L/kg, the clearance is 8.92 mL/min/kg and the half-life was 1.9 h.

As to `C=C[C@]1(C)C[C@@H](OC(=O)CS[C@@H]2CC[C@@H](N)C[C@H]2O)[C@]2(C)[C@H](C)CC[C@]3(CCC(=O)[C@H]32)[C@@H](C)[C@@H]1O`, the MRT is 5.53 h, the Vd is 1.32 L/kg, the clearance is 3.96 mL/min/kg and the half-life was 6.4 h. In addition, the unbound share (fraction unbound) was 0.17.

Turning to `CCCCCc1cc(O)c2c(c1)OC(C)(C)c1ccc(C)cc1-2`, the MRT was 15.9 h, the Vd was 17 L/kg, the clearance was 17.9 mL/min/kg and the half-life is 25.5 h.

Consider `CCCCCCCCc1ccc(CCC(N)(CO)CO)cc1`, for which the MRT was 189 h, the distribution volume (Vd) is 17.3 L/kg, the clearance is 1.53 mL/min/kg and the half-life was 144 h. Moreover, the fraction unbound was 0.002.

On to `CS(=O)(=O)c1cc(F)cc2c3c(n(Cc4ccc(Cl)cc4)c12)[C@@H](CC(=O)O)CC3`, for which the MRT was 13.7 h, the Vd was 1 L/kg, the clearance is 1.21 mL/min/kg and the half-life was 11.8 h.

Regarding `CCC(C)CC(C)CCCCCCCCC(=O)NC1CC(O)C(NCCN)NC(=O)C2C(O)CCN2C(=O)C(C(O)CCN)NC(=O)C(C(O)C(O)c2ccc(O)cc2)NC(=O)C2CC(O)CN2C(=O)C(C(C)O)NC1=O` (stereo not given), the fraction unbound is 0.035.

As to `COc1ccc2[nH]cc(CCNC(C)=O)c2c1`, the MRT was 1.1 h, the distribution volume (Vd) was 1.1 L/kg, the clearance was 16.5 mL/min/kg and the half-life was 1.1 h. For the same compound, the unbound share (fraction unbound) is 0.39.

Consider `COc1ccccc1Oc1c(NS(=O)(=O)c2ccc(C)cn2)nc(-c2ccncc2)nc1OC`, for which the MRT is 8.8 h, the volume of distribution (Vd) was 0.27 L/kg, the clearance is 0.52 mL/min/kg and the half-life was 7.2 h.

Take `CN(C)CCCNC(=O)/C(=C/CCCCC(O)=NO)COc1cccc2ccccc12`: the mean residence time MRT was 4.1 h, the Vd is 0.45 L/kg, the clearance is 1.82 mL/min/kg and the half-life was 2.1 h.

On to `C=C1/C(=C\C=C2/CCC[C@]3(C)[C@@H]([C@H](C)CCCC(C)C)CC[C@@H]23)C[C@@H](O)C[C@@H]1O`, for which the clearance was 0.82 mL/min/kg and the half-life is 48.6 h.

`CC(NCc1ccc(OCc2cccc(F)c2)cc1)C(N)=O` (stereo not given): the MRT was 31.2 h, the volume of distribution (Vd) was 2.19 L/kg, the clearance was 1.17 mL/min/kg and the half-life is 21.7 h.

For `C[N+](C)(C)C[C@H](O)CC(=O)[O-]`, the MRT is 4.2 h, the Vd is 0.4 L/kg, the clearance is 1.6 mL/min/kg and the half-life was 5 h. Besides, the fraction unbound was 1.

As to `CC(C)(C)c1cnc(CSc2cnc(NC(=O)C3CCNCC3)s2)o1`, the mean residence time MRT was 7.13 h, the Vd was 5.14 L/kg, the clearance was 13 mL/min/kg and the half-life was 9.3 h.

On to `Cc1nccn1CC1CCc2c(c3ccccc3n2C)C1=O` (stereo not given), for which the MRT was 5.2 h, the Vd was 1.8 L/kg, the clearance is 5.8 mL/min/kg and the half-life is 3.4 h.

Regarding `Nc1cc(OCC2CC2)c(C(=O)NC2CN3CCC2CC3)cc1Cl` (stereo not given), the MRT was 12.3 h, the distribution volume (Vd) was 3.9 L/kg, the clearance was 5.2 mL/min/kg and the half-life was 13.5 h.

As for `C[C@H](O)C1C(=O)N2C(C(=O)O)=C(S[C@H]3CN[C@H](CNS(N)(=O)=O)C3)[C@@H](C)C12` (stereo not given in full), the half-life was 1.2 h and the unbound share (fraction unbound) was 0.92.

Take `COc1cccc2c1c(NS(=O)(=O)c1ccc(Cl)s1)nn2Cc1cccc(CNC(=O)C(C)(C)O)c1`: the MRT was 5.43 h, the Vd is 1.65 L/kg, the clearance is 5.1 mL/min/kg and the half-life is 13.5 h.

On to `O=C(O)C1/C(=C/CO)O[C@@H]2CC(=O)N12` (stereo not given in full), for which the MRT was 1 h, the Vd is 0.22 L/kg, the clearance was 3.1 mL/min/kg and the half-life was 0.9 h.

Regarding `Nc1nc2[nH]cnc2c(=S)[nH]1`, the mean residence time MRT is 3.13 h, the Vd was 2.89 L/kg, the clearance is 15.4 mL/min/kg and the half-life was 24.4 h.

For the compound `N/N=c1\[nH]ncc2ccccc12`, the MRT was 0.29 h, the Vd is 1.5 L/kg, the clearance was 85 mL/min/kg and the half-life is 1 h. Further, the fraction unbound was 0.12.

On to `C#C[C@]1(O)C=C[C@H]2[C@@H]3CC=C4CC(=O)CCC4[C@H]3CC[C@@]21CC` (stereo not given in full), for which the mean residence time MRT is 9.6 h, the volume of distribution (Vd) was 0.46 L/kg, the clearance was 0.8 mL/min/kg and the half-life is 10 h. Also, the fraction unbound is 0.023.

`C[C@H](CCC(=O)O)[C@H]1CC[C@H]2[C@@H]3[C@H](O)C[C@@H]4C[C@H](O)CC[C@]4(C)[C@H]3CC[C@]12C`: the MRT was 0.57 h, the distribution volume (Vd) was 0.19 L/kg, the clearance is 5.7 mL/min/kg and the half-life was 1.42 h.

On to `Oc1c(C2=CC[C@@H](c3ccc(Cl)cc3)CC2)c(O)c2ccccc2c1O`, for which the MRT is 67 h, the Vd was 0.6 L/kg, the clearance is 0.15 mL/min/kg and the half-life is 63 h. The fraction unbound is 0.001.

Regarding `COC(=O)C(c1ccccc1)[C@H]1CCCCN1` (stereo not given in full), the MRT is 6.62 h, the distribution volume (Vd) is 2.65 L/kg, the clearance is 6.67 mL/min/kg and the half-life was 8 h. For the same compound, the unbound share (fraction unbound) is 0.87.

As to `O=C(O)C1C[C@@H](C2CCCCC2)CN1C(=O)CP(=O)(O)CCCCc1ccccc1` (stereo not given in full), the MRT was 6.8 h, the distribution volume (Vd) was 0.13 L/kg, the clearance was 0.32 mL/min/kg and the half-life is 9.4 h.

Consider `Cc1ccc(Nc2nccc(N(C)c3ccc4c(C)n(C)nc4c3)n2)cc1S(N)(=O)=O`, for which the MRT was 44.4 h, the distribution volume (Vd) was 0.16 L/kg, the clearance is 0.06 mL/min/kg and the fraction unbound is 0.01.

Take `COCCn1c2c([n+](Cc3cnccn3)c1C)C(=O)c1ccccc1C2=O`: the MRT was 34.5 h, the distribution volume (Vd) is 23.7 L/kg, the clearance is 11.3 mL/min/kg and the half-life is 24.8 h.

With `C[C@H]1O[C@@H](n2cc(F)c(=O)[nH]c2=O)[C@H](O)[C@@H]1O`, the mean residence time MRT is 0.46 h, the distribution volume (Vd) is 0.28 L/kg, the clearance is 11 mL/min/kg and the half-life was 0.35 h.

For `CC(=O)N(O)CCCCCNC(=O)CCC(=O)N(O)CCCCCNC(=O)CCC(=O)N(O)CCCCCN`, the MRT is 2.7 h, the Vd is 1.35 L/kg, the clearance was 8.33 mL/min/kg and the half-life is 3.05 h.

As to `CCCc1c(OCCCS(=O)(=O)c2ccc(C(=O)CCC(=O)O)cc2)ccc(C(C)=O)c1O`, the clearance is 17.4 mL/min/kg and the half-life is 0.04 h.
